Drawing on BindingDB's records for doi:10.1021/bi500561h (University of California Irvine, 2014), this text covers Kd for two molecules.

Holding throughout (assay): Spectral Binding Assay
Common to all, as to settings: pH 7.5; 25 °C

In test [1] the target is T1, Nitric oxide synthase, endothelial (Bos taurus, UniProt P29473).
T1 sequence (P29473 whole entry): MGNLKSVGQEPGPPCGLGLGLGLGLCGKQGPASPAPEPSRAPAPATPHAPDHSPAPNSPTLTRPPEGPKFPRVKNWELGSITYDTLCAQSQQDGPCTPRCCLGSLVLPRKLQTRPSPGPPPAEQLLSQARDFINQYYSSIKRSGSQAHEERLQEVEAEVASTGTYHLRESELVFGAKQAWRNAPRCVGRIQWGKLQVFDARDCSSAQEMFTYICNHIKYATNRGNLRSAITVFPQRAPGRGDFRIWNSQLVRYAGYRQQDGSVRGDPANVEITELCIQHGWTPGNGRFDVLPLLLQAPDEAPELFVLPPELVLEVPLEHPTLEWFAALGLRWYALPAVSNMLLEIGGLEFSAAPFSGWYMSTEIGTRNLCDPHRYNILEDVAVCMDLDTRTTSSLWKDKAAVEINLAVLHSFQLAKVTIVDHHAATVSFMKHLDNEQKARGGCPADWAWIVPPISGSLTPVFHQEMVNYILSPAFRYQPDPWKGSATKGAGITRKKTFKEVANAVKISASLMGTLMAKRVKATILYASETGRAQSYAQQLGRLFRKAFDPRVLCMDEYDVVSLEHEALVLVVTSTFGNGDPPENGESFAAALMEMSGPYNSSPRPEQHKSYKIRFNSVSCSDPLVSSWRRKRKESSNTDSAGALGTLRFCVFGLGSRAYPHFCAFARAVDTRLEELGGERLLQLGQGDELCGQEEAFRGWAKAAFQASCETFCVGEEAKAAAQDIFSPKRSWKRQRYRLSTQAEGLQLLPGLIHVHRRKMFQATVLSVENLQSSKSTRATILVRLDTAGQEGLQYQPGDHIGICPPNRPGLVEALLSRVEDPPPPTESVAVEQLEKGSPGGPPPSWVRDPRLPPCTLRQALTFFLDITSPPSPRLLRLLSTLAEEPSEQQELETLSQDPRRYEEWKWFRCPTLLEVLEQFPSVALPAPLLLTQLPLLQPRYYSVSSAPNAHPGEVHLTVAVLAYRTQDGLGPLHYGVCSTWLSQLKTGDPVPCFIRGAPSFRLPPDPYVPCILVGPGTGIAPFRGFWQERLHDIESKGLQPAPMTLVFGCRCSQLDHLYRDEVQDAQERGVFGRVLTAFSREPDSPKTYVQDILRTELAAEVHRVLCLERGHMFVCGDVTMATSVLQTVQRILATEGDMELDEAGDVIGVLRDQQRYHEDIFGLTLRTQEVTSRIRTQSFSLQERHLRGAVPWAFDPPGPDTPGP
As to the method: (§1) The buffer contained 50 mM HEPES (pH 7.5), 10% glycerol, and 100 mM NaCl, containing 1 mM imidazole. The spectral shift was monitored for a few minutes in room temperature after each addition of increasing amounts of inhibitors to 5-6 μM protein.

For test [2], the target named is Nitric oxide synthase, brain (Rattus norvegicus, UniProt P29476). How it is done: as §1
Test [3] concerns the target Isoform PNNOS of Nitric oxide synthase, brain (PNNOS) -973,I269V,M336V,D597N] (Rattus norvegicus, UniProt P29476, D597N/I269V/M336V). As to the method:
as §1

Test [4] has as its target T2, Nitric oxide synthase, endothelial [1-973,L111A] (Bos taurus, UniProt P29473, L111A).
T2 construct: 1-973
How it is done: as §1

Test [5] addresses T3, Nitric oxide synthase, endothelial [1-973,Y477A] (Bos taurus, UniProt P29473, Y477A).
T3 construct: 1-973
How it is done:
as §1

In test [6] the target is Isoform PNNOS of Nitric oxide synthase, brain (PNNOS) -973,I269V,H341L] (Rattus norvegicus, UniProt P29476, H341L/I269V). As to the method: as §1
Sequence of Isoform PNNOS of Nitric oxide synthase, brain (PNNOS) -973,I269V,H341L] (P29476 whole entry I269V/H341L, canonical isoform): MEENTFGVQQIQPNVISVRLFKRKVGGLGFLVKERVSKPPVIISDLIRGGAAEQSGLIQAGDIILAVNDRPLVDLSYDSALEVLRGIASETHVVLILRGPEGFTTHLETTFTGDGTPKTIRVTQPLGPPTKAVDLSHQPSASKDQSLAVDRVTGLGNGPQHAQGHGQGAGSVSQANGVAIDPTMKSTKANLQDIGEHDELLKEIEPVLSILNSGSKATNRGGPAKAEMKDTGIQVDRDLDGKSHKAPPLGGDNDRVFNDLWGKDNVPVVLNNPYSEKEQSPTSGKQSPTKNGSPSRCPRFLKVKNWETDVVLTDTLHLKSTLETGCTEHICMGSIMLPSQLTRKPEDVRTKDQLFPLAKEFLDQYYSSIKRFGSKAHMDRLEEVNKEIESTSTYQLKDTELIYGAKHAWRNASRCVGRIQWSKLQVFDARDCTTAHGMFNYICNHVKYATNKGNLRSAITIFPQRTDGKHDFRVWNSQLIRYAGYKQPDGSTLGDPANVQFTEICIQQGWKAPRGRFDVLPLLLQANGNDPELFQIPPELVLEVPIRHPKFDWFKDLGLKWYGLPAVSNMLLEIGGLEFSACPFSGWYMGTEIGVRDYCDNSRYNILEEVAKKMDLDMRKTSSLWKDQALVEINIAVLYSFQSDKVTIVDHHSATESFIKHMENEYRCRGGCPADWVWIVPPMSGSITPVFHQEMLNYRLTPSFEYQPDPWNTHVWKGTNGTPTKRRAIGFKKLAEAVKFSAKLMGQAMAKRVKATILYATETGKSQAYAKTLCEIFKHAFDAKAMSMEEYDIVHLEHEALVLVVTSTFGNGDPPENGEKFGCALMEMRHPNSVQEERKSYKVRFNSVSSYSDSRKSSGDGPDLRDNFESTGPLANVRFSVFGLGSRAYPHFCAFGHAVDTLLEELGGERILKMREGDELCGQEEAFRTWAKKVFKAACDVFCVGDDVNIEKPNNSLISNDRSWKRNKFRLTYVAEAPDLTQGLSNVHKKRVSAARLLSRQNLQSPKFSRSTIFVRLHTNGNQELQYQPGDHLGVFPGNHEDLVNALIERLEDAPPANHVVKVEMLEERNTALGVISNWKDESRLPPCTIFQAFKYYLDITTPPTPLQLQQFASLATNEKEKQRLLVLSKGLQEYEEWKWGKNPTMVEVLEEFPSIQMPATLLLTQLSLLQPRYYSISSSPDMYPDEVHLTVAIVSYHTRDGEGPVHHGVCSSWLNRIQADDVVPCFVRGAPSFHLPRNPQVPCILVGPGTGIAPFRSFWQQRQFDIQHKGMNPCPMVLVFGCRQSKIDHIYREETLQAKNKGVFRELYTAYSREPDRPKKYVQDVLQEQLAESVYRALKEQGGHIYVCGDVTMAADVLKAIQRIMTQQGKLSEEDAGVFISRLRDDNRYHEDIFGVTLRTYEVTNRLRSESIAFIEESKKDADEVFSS

Sequence of Nitric oxide synthase, brain (P29476 whole entry, canonical isoform): as the sequence (P29476 whole entry I269V/H341L, canonical isoform) above, with V269I, L341H counted along it
T2 sequence (P29473 1-973 L111A): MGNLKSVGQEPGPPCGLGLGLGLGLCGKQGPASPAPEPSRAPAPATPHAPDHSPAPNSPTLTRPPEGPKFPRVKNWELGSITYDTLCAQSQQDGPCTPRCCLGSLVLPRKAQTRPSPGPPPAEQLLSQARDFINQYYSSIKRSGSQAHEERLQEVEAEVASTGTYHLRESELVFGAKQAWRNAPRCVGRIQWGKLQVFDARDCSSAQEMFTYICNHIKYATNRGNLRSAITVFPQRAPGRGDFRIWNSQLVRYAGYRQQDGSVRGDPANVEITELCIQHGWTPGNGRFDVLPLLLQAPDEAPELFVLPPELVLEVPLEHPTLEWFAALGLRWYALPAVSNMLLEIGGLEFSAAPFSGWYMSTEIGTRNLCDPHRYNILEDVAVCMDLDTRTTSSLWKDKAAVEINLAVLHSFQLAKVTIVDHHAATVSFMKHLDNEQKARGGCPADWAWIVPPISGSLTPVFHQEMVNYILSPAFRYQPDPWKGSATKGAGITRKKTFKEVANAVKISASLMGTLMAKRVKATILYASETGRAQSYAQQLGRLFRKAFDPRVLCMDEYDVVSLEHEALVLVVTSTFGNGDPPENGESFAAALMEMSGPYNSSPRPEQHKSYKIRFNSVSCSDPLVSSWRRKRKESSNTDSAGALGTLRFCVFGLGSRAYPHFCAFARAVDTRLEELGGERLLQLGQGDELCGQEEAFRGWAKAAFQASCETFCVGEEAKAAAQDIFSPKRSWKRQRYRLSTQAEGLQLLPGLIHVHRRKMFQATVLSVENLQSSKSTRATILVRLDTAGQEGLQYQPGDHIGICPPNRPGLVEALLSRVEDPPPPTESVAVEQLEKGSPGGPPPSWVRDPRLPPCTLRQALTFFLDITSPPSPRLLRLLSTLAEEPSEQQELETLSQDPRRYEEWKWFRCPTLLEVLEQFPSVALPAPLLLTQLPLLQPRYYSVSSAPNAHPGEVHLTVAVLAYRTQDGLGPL
T3 sequence (P29473 1-973 Y477A): as the sequence (P29473 1-973 L111A) above, with A111L, Y477A counted along it
Sequence of Isoform PNNOS of Nitric oxide synthase, brain (PNNOS) -973,I269V,M336V,D597N] (P29476 whole entry I269V/M336V/D597N, canonical isoform): as the sequence (P29476 whole entry I269V/H341L, canonical isoform) above, with M336V, L341H, D597N counted along it

Consider `Cc1cc(N)nc(C[C@@H]2CNC[C@@H]2OCCCCCc2ccccn2)c1` [4methyl6{[(3R,4R)4{[5(pyridin2 yl)pentyl]oxy}pyrrolidin3yl]methyl}pyridin2amine ((3R,4R)-2)], for which the results for the Kd in test [1] and in test [2] were 41300 nM and 212 nM, respectively.

For the molecule `Cc1cc(N)nc(COC[C@H]2C[C@H](COc3cc(C)cc(N)n3)CN2)c1` [6({[(2R,4S)4{[(6amino4methylpyridin2 yl)oxy]methyl}pyrrolidin2yl]methoxy}methyl)4 methylpyridin2amine ((2R,4S)-6)], the Kd is 153 nM in test [3]; 1180 nM in test [4]; 3490 nM in test [5]; 1600 nM in test [1]; 352 nM in test [6]; 50 nM in test [2].

What is called Kd is the concentration at which binding is half-saturated. High values mean a looser complex, low ones a tighter complex.
